Patent US4965194A, “Pyruvate oxidase and an analytical method using the same” (Toyo Boseki Kabushiki Kaisha, priority 1986, dated 1990)

Test system: pyruvate oxidase (EC 1.2.3.3) of Lactobacillus sp. TE6103 (FERM BP-1419)
Test: Km determination of the thermostable pyruvate oxidase (physicochemical characteristics of the enzyme)
Format: biochemical
Details: purified enzyme from Lactobacillus sp. TE6103; activity assay at 37° C., pH 7.0, with thiamine pyrophosphate and FAD; read-out: Km for pyruvic acid
Description: The activity of the resulting pyruvate oxidase can be measured as follows:
First, from the mixture of the ingredients listed above, 2.5 ml is sampled and placed in a test tube, and 0.5 ml of a 0.3 M solution of potassium pyruvate is added thereto. The mixture is then heated at 37° C. for 5 minutes. To this, 0.05 ml of the enzyme solution is added, and the mixture gently stirred; then, the changes (ΔOD) in the optical density at 500 nm over 1 minute of the mixture at 37° C. are monitored in a spectrophotometer against water. Next, in place of the enzyme solution, 0.05 ml of a 50 mM potassium phosphate buffer (pH 7.0) is used, and the same steps as above are followed to measure the changes (ΔOD) in optical density over 1 minute; this is the blank test. Under these conditions, the enzyme activity of pyruvate oxidase that produces 1 μmol of hydrogen peroxide is taken to be one unit (U).
The physicochemical characteristics of the enzyme activity of this invention will be shown below.

Question: Which Km does the source give for `CC(=O)C(=O)O` [pyruvic acid] here?
Answer: ~400 µM
